# Patent US6737383B1, “Herbicidal oxadiazolidines” (priority 1999, dated 2004)
# What was measured:
# crabgrass = assay: Test B pre/postemergence crabgrass; type: in vivo, Digitaria sanguinalis
# How it was run: (§1)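 Test chemicals in a non-phytotoxic solvent mixture with surfactant were sprayed preemergence onto planted seeds and postemergence onto plants 2 to 18 cm tall (1- to 4-leaf stage). After twelve to sixteen days in a greenhouse, injury was visually rated against untreated controls from 0 (no effect) to 10 (complete control).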
# surinam grass = assay: Test B pre/postemergence surinam grass; type: in vivo, Brachiaria decumbens
# How it was run: as §1
# blackgrass = assay: Test B pre/postemergence blackgrass; type: in vivo, Alopecurus myosuroides
# How it was run: as §1
# duck salad = assay: Test B flood test duck salad; type: in vivo, Heteranthera limosa
# How it was run: (§2)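 Plants were grown to the 2-leaf stage before treatment with test chemical, then held in a greenhouse for twelve to sixteen days. Injury was visually rated against untreated controls on a 0–10 scale, where 0 is no effect and 10 is complete control.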
# cocklebur = assay: Test B pre/postemergence cocklebur; type: in vivo, Xanthium strumarium
# How it was run: as §1
# purple nutsedge = assay: Test B pre/postemergence purple nutsedge; type: in vivo, Cyperus rotundus
# How it was run: as §1
# soybean = assay: Test B pre/postemergence soybean; type: in vivo, Glycine max
# How it was run: as §1
# pigweed = assay: Test B pre/postemergence pigweed; type: in vivo, Amaranthus retroflexus
# How it was run: as §1
# sugar beet = assay: Test B pre/postemergence sugar beet; type: in vivo, Beta vulgaris
# How it was run: as §1
# bedstraw = assay: Test B pre/postemergence bedstraw; type: in vivo, Galium aparine
# How it was run: as §1
# morningglory = assay: Test B pre/postemergence morningglory; type: in vivo, Ipomoea hederacea
# How it was run: as §1
# corn = assay: Test B pre/postemergence corn; type: in vivo, Zea mays
# How it was run: as §1
# smallflower flatsedge = assay: Test B flood test smallflower flatsedge; type: in vivo, Cyperus difformis
# How it was run: as §2
# giant foxtail = assay: Test B pre/postemergence giant foxtail; type: in vivo, Setaria faberii
# How it was run: as §1
# wild oat = assay: Test B pre/postemergence wild oat; type: in vivo, Avena fatua
# How it was run: as §1
# rice = assay: Test B flood test rice; type: in vivo, Oryza sativa
# How it was run: as §2
# [1] = Preemergence, Rate 62 g/ha, scale of 0 to 10 where 0 is no effect and 10 is complete control
# [2] = Preemergence, Rate 250 g/ha, scale of 0 to 10 where 0 is no effect and 10 is complete control
# [3] = Preemergence, Rate 500 g/ha, scale of 0 to 10 where 0 is no effect and 10 is complete control
# [4] = Rate 62 g/ha, Postemergence, scale of 0 to 10 where 0 is no effect and 10 is complete control
# [5] = Rate 125 g/ha, Postemergence, scale 0 to 10
# [6] = Rate 125 g/ha, Preemergence, scale of 0 to 10 where 0 is no effect and 10 is complete control
# [7] = Rate 500 g/ha, Postemergence, scale 0 to 10
# [8] = Rate 62 g/ha, headed Pre-emergence (flood test species), scale 0 to 10 (0 no effect, 10 complete control)
# [9] = Rate 125 g/ha, Pre-emergence, flood test species, scale 0 to 10 where 0 is no effect and 10 is complete control
# [10] = Rate 250 g/ha, Pre-emergence, flood-test species, scale 0 to 10, 0 is no effect, 10 is complete control
# [11] = Rate 500 g/ha, Pre-emergence, flood test species, scale 0 to 10 (0 no effect, 10 complete control)
smiles,measurement,setting,value
CCOC(=O)C=CCn1c(=O)on(C(=O)N(c2ccc(F)cc2)C(C)C)c1=O [Compound 214],Crabgrass plant response rating,crabgrass; [1],0
same,Crabgrass plant response rating,crabgrass; [2],1
same,"Plant response rating, Crabgrass",crabgrass; [3],4
same,Crabgrass plant response rating,crabgrass; [4],1
same,Crabgrass plant response rating,crabgrass; [5],3
same,Crabgrass plant response rating,crabgrass; [6],0
same,"Plant response rating (0 to 10; 0 is no effect, 10 is complete control), Crabgrass","crabgrass; Rate 250 g/ha, Postemergence",3
same,Crabgrass plant response rating,crabgrass; [7],5
same,B. signalgrass plant response rating,surinam grass; [1],0
same,B. signalgrass plant response rating,"surinam grass; Preemergence, Rate 250 g/ha, scale 0 to 10, 0 is no effect, 10 is complete control",0
same,"Plant response rating, B. signalgrass",surinam grass; [3],0
same,B. signalgrass plant response rating,surinam grass; [4],0
same,B. signalgrass plant response rating,"surinam grass; Rate 125 g/ha, Postemergence, scale 0 (no effect) to 10 (complete control)",0
same,B. signalgrass plant response rating,surinam grass; [6],0
same,"Plant response rating (0 to 10; 0 is no effect, 10 is complete control), B. signalgrass","surinam grass; Rate 250 g/ha, Postemergence",0
same,B. signalgrass plant response rating,"surinam grass; Rate 500 g/ha, Postemergence, scale 0 to 10, 0 no effect, 10 complete control",0
same,Blackgrass plant response rating,blackgrass; [1],0
same,Blackgrass plant response rating,blackgrass; [2],3
same,"Plant response rating, Blackgrass",blackgrass; [3],3
same,Blackgrass plant response rating,blackgrass; [4],1
same,Blackgrass plant response rating,blackgrass; [5],4
same,"Plant response rating (0 to 10; 0 is no effect, 10 is complete control), Blackgrass","blackgrass; Rate 250 g/ha, Postemergence",4
same,Blackgrass plant response rating,blackgrass; [7],5
same,Ducksalad plant response rating,duck salad; [8],0
same,Ducksalad plant response rating,duck salad; [9],0
same,Ducksalad plant response rating,duck salad; [10],0
same,Ducksalad plant response rating,duck salad; [11],0
same,Cocklebur plant response rating,cocklebur; [1],0
same,Cocklebur plant response rating,cocklebur; [2],0
same,"Plant response rating, Cocklebur",cocklebur; [3],0
same,Cocklebur plant response rating,cocklebur; [4],0
same,Cocklebur plant response rating,cocklebur; [5],0
same,Cocklebur plant response rating,cocklebur; [6],0
same,"Plant response rating (0 to 10; 0 is no effect, 10 is complete control), Cocklebur","cocklebur; Rate 250 g/ha, Postemergence",0
same,Cocklebur plant response rating,cocklebur; [7],0
same,Nutsedge plant response rating,purple nutsedge; [1],0
same,Nutsedge plant response rating,purple nutsedge; [4],0
same,Nutsedge plant response rating,purple nutsedge; [5],0
same,"Plant response rating (0 to 10; 0 is no effect, 10 is complete control), Nutsedge","purple nutsedge; Rate 250 g/ha, Postemergence",0
same,Nutsedge plant response rating,purple nutsedge; [7],0
same,Soybean plant response rating,soybean; [1],0
same,Soybean plant response rating,soybean; [2],0
same,"Plant response rating, Soybean",soybean; [3],4
same,Soybean plant response rating,soybean; [4],0
same,Soybean plant response rating,soybean; [5],1
same,Soybean plant response rating,soybean; [6],0
same,"Plant response rating (0 to 10; 0 is no effect, 10 is complete control), Soybean","soybean; Rate 250 g/ha, Postemergence",3
same,Soybean plant response rating,soybean; [7],3
same,Redroot pigweed plant response rating,pigweed; [1],0
same,Redroot pigweed plant response rating,pigweed; [2],6
same,"Plant response rating, Redroot pigweed",pigweed; [3],9
same,Redroot pigweed plant response rating,pigweed; [4],0
same,Redroot pigweed plant response rating,pigweed; [5],0
same,Redroot pigweed plant response rating,pigweed; [6],0
same,"Plant response rating (0 to 10; 0 is no effect, 10 is complete control), Redroot pigweed","pigweed; Rate 250 g/ha, Postemergence",1
same,Redroot pigweed plant response rating,pigweed; [7],3
same,Sugarbeets plant response rating,sugar beet; [1],0
same,Sugarbeets plant response rating,sugar beet; [2],0
same,"Plant response rating, Sugarbeets",sugar beet; [3],0
same,Sugarbeets plant response rating,sugar beet; [4],0
same,Sugarbeets plant response rating,sugar beet; [5],0
same,Sugarbeets plant response rating,sugar beet; [6],0
same,"Plant response rating (0 to 10; 0 is no effect, 10 is complete control), Sugarbeets","sugar beet; Rate 250 g/ha, Postemergence",0
same,Sugarbeets plant response rating,sugar beet; [7],0
same,Bedstraw plant response rating,bedstraw; [1],0
same,Bedstraw plant response rating,bedstraw; [2],0
same,"Plant response rating, Bedstraw",bedstraw; [3],0
same,Bedstraw plant response rating,bedstraw; [4],0
same,Bedstraw plant response rating,bedstraw; [5],0
same,Bedstraw plant response rating,bedstraw; [6],0
same,"Plant response rating (0 to 10; 0 is no effect, 10 is complete control), Bedstraw","bedstraw; Rate 250 g/ha, Postemergence",2
same,Bedstraw plant response rating,bedstraw; [7],8
same,Morningglory plant response rating,morningglory; [1],0
same,Morningglory plant response rating,morningglory; [2],0
same,"Plant response rating, Morningglory",morningglory; [3],0
same,Morningglory plant response rating,morningglory; [4],2
same,Morningglory plant response rating,morningglory; [5],3
same,Morningglory plant response rating,morningglory; [6],0
same,"Plant response rating (0 to 10; 0 is no effect, 10 is complete control), Morningglory","morningglory; Rate 250 g/ha, Postemergence",6
same,Morningglory plant response rating,morningglory; [7],7
same,Corn plant response rating,corn; [1],0
same,Corn plant response rating,corn; [2],0
same,"Plant response rating, Corn",corn; [3],0
same,Corn plant response rating,corn; [4],0
same,Corn plant response rating,corn; [5],0
same,Corn plant response rating,corn; [6],0
same,"Plant response rating (0 to 10; 0 is no effect, 10 is complete control), Corn","corn; Rate 250 g/ha, Postemergence",0
same,Corn plant response rating,corn; [7],0
same,S. Flatsedge plant response rating,smallflower flatsedge; [8],0
same,S. Flatsedge plant response rating,smallflower flatsedge; [9],0
same,S. Flatsedge plant response rating,smallflower flatsedge; [10],0
same,S. Flatsedge plant response rating,smallflower flatsedge; [11],0
same,Giant foxtail plant response rating,giant foxtail; [1],2
same,Giant foxtail plant response rating,giant foxtail; [2],6
same,"Plant response rating, Giant foxtail",giant foxtail; [3],6
same,Giant foxtail plant response rating,giant foxtail; [4],0
same,Giant foxtail plant response rating,giant foxtail; [5],0
same,Giant foxtail plant response rating,giant foxtail; [6],3
same,"Plant response rating (0 to 10; 0 is no effect, 10 is complete control), Giant foxtail","giant foxtail; Rate 250 g/ha, Postemergence",0
same,Giant foxtail plant response rating,giant foxtail; [7],4
same,Wild oats plant response rating,wild oat; [1],0
same,Wild oats plant response rating,wild oat; [2],0
same,"Plant response rating, Wild oats",wild oat; [3],0
same,Wild oats plant response rating,wild oat; [4],0
same,Wild oats plant response rating,wild oat; [5],0
same,Wild oats plant response rating,wild oat; [6],0
same,"Plant response rating (0 to 10; 0 is no effect, 10 is complete control), Wild oats","wild oat; Rate 250 g/ha, Postemergence",0
same,Rice plant response rating,rice; [8],0
same,Rice plant response rating,rice; [9],0
same,Rice plant response rating,rice; [10],0
same,Rice plant response rating,rice; [11],0
